The values below come from patent US20120073988A1, “Sensor for Measurement of Hydrogen Sulfide” (priority 2004, published 2012).

The term pKa denotes the negative logarithm of the acid dissociation constant.

Series [1] has as its system enzyme in the blood vessels that is responsible for H2S production (rat aorta homogenate, VSMC, intact tail artery). Put plainly: Real-time H2S production in rat vascular samples supplied with L-cysteine and PLP. It counts as biochemical. The settings on record: added after L-cysteine and PLP; FIG. 6. An excerpt: In general, the following biological samples are bathed in the potassium phosphate buffer (PBS) described above. The specific procedures are found in Doeller, J. E., Isbell, T. S., Benavides, G., Koenitzer, J., Patel, H., Patel, P. P., Lancaster, J. R. Jr., Darley-Usmar, V. M., and Kraus, D. W.; Polarographic measurement of hydrogen sulfide production and consumption by mammalian tissues; Anal. Biochem.; (2005) 341: 40-51, the contents of which are incorporated by reference herein.
FIG. 6 illustrates measurement of real-time H2S production in rat aorta homogenate (Aorta homogenate), cultured rat vascular smooth muscle cells (VSMC) and living rat tail artery (Intact Tail Artery). After supplying each of the samples with the amino acid L-cysteine and the vitamin pyridoxal […] (PLP), both substrate and cofactor respectively, for the enzyme in the blood vessels that is responsible for H2S production, a rise in solution H2S concentration is observed.

For series [2] the following is noted: H2S→H++HS−; HS−→S2−+H+; cited from earlier work.
Series [3] concerns mitochondria isolated from marine mussel gills. Briefly: O2 consumption of a mitochondria suspension isolated from mussel gills in a closed chamber. On the set-up: species or system ribbed mussel Geukensia demissa. The settings on record: injections of 12.5 μM sulfide, FIG. 5A. An excerpt: The cellular organelle responsible for O2 consumption in biological cells is the mitochondrion. […] Such rapid kinetic events could not be adequately followed with standard colorimetric methods for H2S determination.
Mitochondria were isolated using the isolation procedure referenced in Parrino, V., D. W. Kraus and J. E. Doeller; ATP production from the oxidation of sulfide in gill mitochondria of the ribbed mussel Geukensia demissa; J. Exp. Biol.; (2000) 203:2209-2218, the contents of which are incorporated by reference herein. The mitochondria were suspended in an aqueous salt- and sucrose-containing buffer described in the Parrino reference.
In FIG. 5A two traces show the real-time concentrations of H2S and O2 in a closed chamber containing a mitochondria suspension isolated from mussel gills. The lower trace is H2S concentration and the upper trace is O2 concentration from a different sensor. […] As the chamber O2 is exhausted the sulfide is consumed much more slowly. In FIG. 5B the derivatives (H2S as lower trace and O2 as upper trace) of the traces in FIG. 5A are shown.

The test system of series [4] is isolated rat aorta. Put plainly: Vessel tension organ bath with isolated rat aorta segments. The settings on record: aorta pre-contracted with 100 nM phenylephrine; FIG. 7. The method, then: Individual segments, 4 mm long and 1.5 mm in diameter, are tethered between the bath floor and a sensitive force transducer above the bath in order to measure any vasorelaxation as a decrease in tension. An electrochemical H2S sensor (PHSS) is also immersed in the bath to simultaneously report the H2S concentration. The aorta vessels are first contracted by adding 100 nM phenylephrine, PE, to the bath to stimulate physiological vessel tension. […] Measurement of such an acute response of blood vessels to H2S concentration is only possible with the hydrogen sulfide detection apparatus comprising the PHSS.

Take `N#CC[C@H](N)C(=O)O` [BCA, beta-cyanoalanine]: in series [1], the “effect on H2S production” value was “limit any further H2S production”.

With `S` [H2S, Hydrogen sulfide], in series [2], the pKa was 6.88.

With `S` [HS^−], the pKa in series [2] is 14.15.

As for `[Na+].[Na+].[S-2]` [Na2S], the “effect on O2 consumption” value in series [3] is reported as “stimulate O2 consumption”. Further, in series [4], the “vessel tension (vasorelaxation)” value is given as “immediate vasorelaxation event”.
